“Also recorded” adds a separate entry of the source.
How the values were obtained:
Balb/c mice [1] = assay: Forced Swim Test (FST); type: in vivo
Balb/c mice [2] = assay: Open Field Test (motility and anxiety parameters); type: in vivo
Description: The Open Field Test—Exploratory locomotor activity used in Examples 3.1 and 3.2 described below is one of the most popular in evaluation of animals' behavior. It tests both motility parameters and anxiety (Prut et al). An individual mouse is placed in a novel plexiglass arena of 50×50 cm the floor of which is divided into 3 digital zones: the outer peripheral zone 1, the medial zone 2 and the most central zone 3. The animal behavior in the open field is recorded by videotaping for 20 min and is analyzed subsequently digitally using Noldus software for animal behavior. The measurements include general motility (distance moved, velocity and strong mobility) and anxiety parameters (including frequency of visits to the central area, time spent in the inner field, and number of rearing events in the center). The more the animal stays and performs in the center, the less anxious it is.
(§1) Balb/c male mice were divided to 6 groups (5/group) and administered laquinimod (1, 5, 10 and 25 mg/kg p.o. in the form of laquinimod sodium solution via gavage), fluoxetine (positive control 10 mg/kg po) or vehicle daily for 3 days. On the third day, 90 min following administration, mice were exposed to the open field for 20 min. Behavior was video recorded and analyzed using Ethovision software (Noldus Holland).
as §1, with “(0.5, 1, 5” for “(1, 5, 10”, “field test” for “field”, “minutes.” for “min.”

Balb/c mice [3] = assay: Elevated Plus Maze (EPM); type: in vivo
Source text: The EPM model used in Examples 4.1 and 4.2 described below utilizes the natural fear of rodents to avoid open and elevated places. The apparatus consists of a plus-maze with two enclosed and two opposite open arms, elevated above the floor. […] This is one of the most widely used models to study effects of anxiety-like behavior. The maze consisted of two opposing open arms (40×10 cm) and two opposing closed arms (40×10 cm, with 40 cm walls) on a platform 50 cm above the ground. Mice were placed in the center square (10×10 cm) facing an open arm and videotaped during a 5 min exploration. Arm entries and duration were scored when all four paws enter the arm. Balb/c male mice were divided to 6 groups (5/group) and administered laquinimod (0.5, 1, 5 and 25 mg/kg p.o. in the form of laquinimod sodium solution via gavage), fluoxetine (positive control 10 mg/kg po) or vehicle daily for 3 days. On the third day, 90 min following administration, mice were exposed to the EPM for 5 minutes. Mice were placed in the center square (10×10 cm) facing an open arm and videotaped during a 5 minute exploration. Arm entries and duration was scored when all four paws enter the arm. Behavior was video recorded and analyzed using Ethovision software (Noldus Holland). Balb/c male mice were divided to 6 groups (5/group) and administered laquinimod (0.5, 1, 5 and 25 mg/kg p.o. in the form of laquinimod sodium solution via gavage), fluoxetine (positive control 10 mg/kg po) or vehicle daily for 3 days. On the third day, 90 min following administration, mice were exposed to the EPM for 5 min. Behavior was video recorded and open arms parameters were analyzed using Ethovision software (Noldus Holland).

[4] = test system: brain-derived neurotrophic factor (BDNF); assay: Clinical trial in RRMS patients: BDNF concentration in serum by sandwich ELISA; type: in vivo, human; details: for Mean BDNF concentration in serum: RRMS patients
Description: A study was initiated in relapsing remitting multiple sclerosis (RRMS) patients using laquinimod, 0.6 mg daily, in the form of the sodium salt, in an oral, once-daily tablet formulation. The study was a multinational, multicenter, randomized, double-blind, parallel-group, placebo controlled study assessing the efficacy, tolerability and safety of two doses of laquinimod in subjects with RRMS. Eligible subjects were randomized into the following three groups:
1. 0.6 mg of laquinimod per os (p.o.) once daily;
2. 0.3 mg of laquinimod per os (p.o.) once daily; and
3. Matching placebo, per os (p.o.) once daily. Subjects must meet the following inclusion criteria to be included in the study:
• 1. a confirmed MS diagnosis as defined by the McDonald criteria; • 2. a RRMS disease course; • 3. at least one documented relapse n the 12 months prior to screening; • 4. at least one Gadolinium-enhanced lesion on their screening MRI scan; • 5. ambulatory with a Kurtzke EDSS score of 1.0-5.0 (Converted); • 6. between 18-50 years of age inclusive; • 7. relapse-free and off corticosteroids or ACTH for at least 30 days prior to the MRI scan at screening; • 8. relapse-free and off corticosteroids between screening and randomization; • 9. women of child-bearing potential practiced a reliable method of birth control; • 10. willing and able to comply with the protocol requirements for the duration of the study; and • 11. able to give signed, written and informed consent prior to entering the study. Subjects meeting any one of the following exclusion criteria were excluded from the study: • 1. suffered from any form of progressive MS; • 2. use of immunosuppressive or cytotoxic treatments within 6 months prior to the screening visit (including azathioprine, cyclophosphamide and methotrexate); • 3. use of experimental drugs, and/or participation in drug clinical studies within the 6 months prior to screening; • 4. previous treatment with immunomodulators (including IFN-β1a and 1b, glatiramer acetate, laquinimod and IVIG) within the 2 months prior to screening; • 5. use of potent inhibitors of CYP3A4, for example, oral ketoconazole and erythromycin within 2 weeks prior to baseline visit; • 6. previous use of amiodarone; • 7. use of fluoxetine one month prior to baseline visit; • 8. use of substrates of CYP1A2 such as theophylline and warfarin within 2 weeks prior to screening; • 9. previous treatment with cladribine within the last 2 years prior to screening visit; • 10. subjects for whom potential immunosuppression would be contraindicated, for example, Hepatitis B/C or HIV. • 11. previous total body irradiation or total lymphoid irradiation; • 12. chronic corticosteroid treatment (30 or more consecutive days) within the 2 months prior to screening; • 13. pregnancy or breastfeeding; • 14. subjects with a clinically significant or unstable medical or surgical condition that would preclude safe and complete study participation as determined by medical history, physical exams, ECG, abnormal laboratory tests and chest X-ray. • 15. inability to give informed consent, or to complete the study, or if the subject is considered by the investigator to be, for any reason, an unsuitable candidate for the study; • 16. a known history of sensitivity to Gd; or • 17. inability to successfully undergo MRI scanning.
The study duration was 40 weeks and consisted of 2 periods: 4 weeks of screening period (week −4 [ screening] to week 0 [ baseline]) and 36 weeks of double blind treatment (week 0 [ baseline] to week 36 [ termination]).
Subjects were evaluated at study sites at weeks −4, 0, 4, 8, 12, 16, 20, 24, 28, 32 and 36. Samples for inflammatory markers were collected at all visits between 0 and 36 weeks.
BDNF concentration in serum was measured in patients in the placebo group (102 patients were in the group) and in the 0.6 mg laquinimod group (106 patients were in the group) at week 0 (V0), week 12 (v3) and week 36 (V9). […]

CNCCC(Oc1ccc(C(F)(F)F)cc1)c1ccccc1 (stereo not drawn) [fluoxetine, reference compound]
Antidepressant activity in FST (Balb/c mice [1]; Example 2.1, positive control 10 mg/kg p.o. daily for 3 days): did not show significant effect | Antidepressant activity in FST (Balb/c mice [1]; Example 2.2, positive control 10 mg/kg p.o. daily for 3 days): trend to the same activity | Anxiety parameters (zone 2) in open field (Balb/c mice [2]; Example 3.1, 10 mg/kg p.o. daily for 3 days): tended to perform more in the center | Motility parameters in open field (Balb/c mice [2]; Example 3.1, 10 mg/kg p.o. daily for 3 days, 20 min): did not modify significantly the motility parameters | Anxiety parameters (zones 2+3) in open field (Balb/c mice [2]; Example 3.2, 10 mg/kg p.o. daily for 3 days): significant anxiolytic effect | Anxiety parameters (zones 2+3) in open field (Balb/c mice [2]; Example 3.2, 10 mg/kg p.o. daily for 3 days, listed as Fluoxetine): performed significantly more in the center

CCN(C(=O)c1c(O)c2c(Cl)cccc2n(C)c1=O)c1ccccc1 [Laquinimod, N-ethyl-N-phenyl-1,2-dihydro-4-hydroxy-5-chloro-1-methyl-2-oxoquinoline-3-carboxamide]
Antidepressant activity (increased mobility, reduced immobility) in FST (Balb/c mice [1]; Example 2.1, 1 mg/kg p.o. daily for 3 days, 90 min after last dose): significant antidepressant activity | Most active dose in FST (Balb/c mice [1]; Example 2.1, doses tested 1-25 mg/kg/d x3d p.o.): 1 mg/kg | Antidepressant activity (increased mobility, reduced immobility) in FST (Balb/c mice [1]; Example 2.1, higher doses (25 mg/kg) p.o. daily for 3 days): trend to significance | Antidepressant activity (increased mobility, reduced immobility) in FST (Balb/c mice [1]; Example 2.2, 5 and 25 mg/kg p.o. daily for 3 days): significant antidepressant activity | Anxiolytic activity in EPM (Balb/c mice [3]; Example 4.1, 0.5, 1, 5 and 25 mg/kg p.o. daily for 3 days): anxiolytic activity in a dose dependent manner | Anxiolytic effect in EPM (activity on the open arm) (Balb/c mice [3]; Example 4.1, 5 and 25 mg/kg/d x3d p.o., 5 min): significant anxiolytic effect | Dose of maximal effect in EPM (Balb/c mice [3]; Example 4.1, p.o.): 25 mg/kg | Anxiolytic activity in EPM (Balb/c mice [3]; Example 4.2, 0.5, 1, 5 and 25 mg/kg p.o. daily for 3 days): anxiolytic activity in a dose dependent manner | Anxiolytic effect in EPM (open arm parameters) (Balb/c mice [3]; Example 4.2, 5-25 mg/kg/d x3d p.o., 5 min): significant anxiolytic effect | Dose of maximal effect in EPM (Balb/c mice [3]; Example 4.2, p.o.): 5 to 25 mg/kg | Most potent dose, anxiety parameters (zones 2 and 3) in open field (Balb/c mice [2]; Example 3.1): 1 mg/kg | Motility parameters in open field (Balb/c mice [2]; Example 3.1, 1-25 mg/kg/d x3d p.o., 20 min): did not modify significantly the motility parameters; also recorded: did not modify general mobility parameters | Anxiety parameters (zone 2) in open field (Balb/c mice [2]; Example 3.1, 1-25 mg/kg/d x3d p.o., frequency, time spent, distance moved, rearings): tendency toward anxiolytic effect | Anxiety parameters (zone 2) in open field (Balb/c mice [2]; Example 3.1, 1-25 mg/kg/d x3d p.o., frequency, time spent, distance moved, rearings, listed as laquinimod): tended to perform more in the center | Anxiety parameters (zones 2 and 3) in open field (Balb/c mice [2]; Example 3.1, 1-25 mg/kg/d x3d p.o., time spent, distance moved, rearings): tendency toward anxiolytic effect | Anxiety parameters (zones 2 and 3) in open field (Balb/c mice [2]; Example 3.1, 1-25 mg/kg/d x3d p.o., time spent, distance moved, rearings, listed as laquinimod): tended to perform more in the center | Most potent dose, anxiety parameters in open field (Balb/c mice [2]; Example 3.2): 5 mg/kg | Motility parameters in open field (Balb/c mice [2]; Example 3.2, 0.5-5 mg/kg (0.5-25 mg/kg/d x3d p.o. tested)): slight increase in motility | Anxiety parameters (zones 2+3) in open field (Balb/c mice [2]; Example 3.2, 0.5-5 mg/kg p.o. daily for 3 days, frequency, time spent, rearings): performed significantly more in the center; also recorded: significant anxiolytic effect | Difference in BDNF versus placebo group ([4]; 0.6 mg/day, V9 (week 36)): statistically significant | Elevation of BDNF versus placebo group ([4]; 0.6 mg/day, starting from V3 (week 12), Confidence Level of 95%): statistically significant elevation of BDNF | Mean BDNF concentration in serum ([4]; 0.6 mg laquinimod p.o. once daily group, baseline week 0 (V0)): 13892.7 pg/mL | Mean BDNF concentration in serum ([4]; 0.6 mg laquinimod p.o. once daily, week 12 (V3)): 15519.6 pg/mL | Mean BDNF concentration in serum ([4]; 0.6 mg laquinimod p.o. once daily, week 36 (V9)): 15335.8 pg/mL | Difference in mean BDNF, Laquinimod 0.6 mg-Placebo (t Test, unequal variances) ([4]; baseline week 0 (V0)): -218.0 pg/mL | Difference in mean BDNF, Laquinimod 0.6 mg-Placebo (t Test, unequal variances) ([4]; week 12 (V3)): 2445.70 pg/mL | Difference in mean BDNF, Laquinimod 0.6 mg-Placebo (t Test, unequal variances) ([4]; week 36 (V9)): 2552.21 pg/mL
